Data published in ChEMBL document CHEMBL1130965, “Inhibitors of farnesyl protein transferase. Synthesis and biological activity of amide and cyanoguanidine derivatives containing a 5,11-dihydro[1]benzthiepin, benzoxepin, and benzazepin [4,3-b]pyridine ring system” (Bioorg Med Chem Lett, 1998).

Legend:
[1] = target: T1, Protein farnesyltransferase (Homo sapiens, UniProt P49354+P49356); assay: In vitro FPT potency by measuring the ability to inhibit the transfer of [3H]farnesyl from farnesyl pyrophosphate to H-Ras-CLVS.; assay type: protein-complex assay
[2] = target: T1, Protein farnesyltransferase; assay: In vitro inhibition of [3H]farnesyl incorporation into H-Ras-CLVS by farnesyl transferase at 1.2 uM; assay type: protein-complex assay
[3] = target: T1, Protein farnesyltransferase; assay: In vitro inhibition of Ras processing by COS cells at 20 uM; assay type: functional, cell-based
[4] = target: T1, Protein farnesyltransferase; assay: In vitro inhibition of Ras processing in COS cells; assay type: functional, cell-based
[5] = target: T1, Protein farnesyltransferase; assay: In vitro inhibition of [H]-farnesyl incorporation into H-Ras-CLVS by farnesyl transferase at 1.3 uM; assay type: protein-complex assay
[6] = target: T1, Protein farnesyltransferase; assay: In vitro inhibition of [3H]farnesyl incorporation into H-Ras-CLVS by farnesyl transferase at 0.042 uM; assay type: protein-complex assay

Structure (SMILES)	IC50 [1]	also measured
O=C(Cc1cc[n+]([O-])cc1)N1CCC(=C2c3ccc(Cl)cc3S(=O)(=O)Cc3cccnc32)CC1		inhibition [2]: 30%
O=C(CC1CCNCC1)N1CCC(=C2c3ccc(Cl)cc3S(=O)(=O)Cc3cccnc32)CC1		inhibition [2]: 28%
CN1Cc2cccnc2C(N2CCN(C(=O)Cc3cc[n+]([O-])cc3)CC2)c2ccc(Cl)cc21 (stereo not given)	2.7 µM	IC50 [4]: 20 µM
N#CN/C(=N\Cc1ccc[n+]([O-])c1)N1CCN(C2c3ccc(Cl)cc3SCc3cccnc32)CC1 (stereo not given)	0.14 µM	
N#CN/C(=N\Cc1ccncc1)N1CCN(C2c3ccc(Cl)cc3SCc3cccnc32)CC1 (stereo not given)	0.061 µM	
O=C(Cc1ccncc1)N1CCN(C2c3ccc(Cl)cc3SCc3cccnc32)CC1 (stereo in doubt; 36)	0.032 µM	
O=C(CSc1cc[n+]([O-])cc1)N1CCC(=C2c3ccc(Cl)cc3SCc3cccnc32)CC1	0.62 µM	IC50 [4]: 5 µM
O=C(Cc1cc[n+]([O-])cc1)N1CCN(C2c3ccc(Cl)cc3SCc3cccnc32)CC1 (stereo not given)	0.079 µM	IC50 [4]: 10 µM
O=C(Cc1ccncc1)N1CCC(=C2c3ccc(Cl)cc3SCc3cccnc32)CC1	0.19 µM	IC50 [4]: 4.2 µM
CN1Cc2cccnc2C(N2CCN(C(=O)CC3CCNCC3)CC2)c2ccc(Cl)cc21 (stereo not given)		inhibition [5]: 10%
NC(=O)N1CCC(CC(=O)N2CCN(C3c4ccc(Cl)cc4SCc4cccnc43)CC2)CC1 (stereo not given)	1.12 µM	
N#CN/C(=N\Cc1ccncc1)N1CCC(=C2c3ccc(Cl)cc3OCc3cccnc32)CC1		inhibition [6]: 25%
NC(=O)N1CCC(CC(=O)N2CCC(=C3c4ccc(Cl)cc4S(=O)(=O)Cc4cccnc43)CC2)CC1		inhibition [2]: 35%
O=C(Cc1ccncc1)N1CCN(C2c3ccc(Cl)cc3SCc3cccnc32)CC1 (stereo in doubt; 40)	1 µM	
O=C(Cc1cc[n+]([O-])cc1)N1CCN(C2c3ccc(Cl)cc3S(=O)(=O)Cc3cccnc32)CC1 (stereo not given)	3.4 µM	
O=C(Cc1ccncc1)N1CCN(C2c3ccc(Cl)cc3S(=O)(=O)Cc3cccnc32)CC1 (stereo not given)	1 µM	
NC(=O)N1CCC(CC(=O)N2CCC(=C3c4ccc(Cl)cc4SCc4cccnc43)CC2)CC1	0.92 µM	IC50 [4]: 3.8 µM
O=C(CC1CCNCC1)N1CCC(=C2c3ccc(Cl)cc3SCc3cccnc32)CC1	0.59 µM	
CN1Cc2cccnc2C(N2CCN(C(=O)Cc3ccncc3)CC2)c2ccc(Cl)cc21 (stereo not given)	0.84 µM	inhibition [3]: 0%
N#CN=C(NCc1ccncc1)N1CCC(=C2c3ccc(Cl)cc3SCc3cccnc32)CC1	0.043 µM	IC50 [4]: 1.7 µM
O=C(Cc1ccncc1)N1CCC(=C2c3ccc(Cl)cc3S(=O)(=O)Cc3cccnc32)CC1	0.56 µM	

Now from value to molecule, other results behind:

IC50 [1]	Structure (SMILES)	also measured
1.1 µM	O=C(CC1CCNCC1)N1CCN(C2c3ccc(Cl)cc3SCc3cccnc32)CC1 (stereo not given)	
1.79 µM	CN1CCC(CC(=O)N2CCC(=C3c4ccc(Cl)cc4SCc4cccnc43)CC2)CC1	
1.52 µM	O=C(Cc1cc[n+]([O-])cc1)N1CCC(=C2c3ccc(Cl)cc3OCc3cccnc32)CC1	inhibition [3]: 41%
2.1 µM	CN1CCC(CC(=O)N2CCN(C3c4ccc(Cl)cc4SCc4cccnc43)CC2)CC1 (stereo not given)	
0.52 µM	O=C(Cc1cc[n+]([O-])cc1)N1CCC(=C2c3ccc(Cl)cc3SCc3cccnc32)CC1	IC50 [4]: 10 µM
0.038 µM	N#CN/C(=N\Cc1ccc[n+]([O-])c1)N1CCC(=C2c3ccc(Cl)cc3SCc3cccnc32)CC1	inhibition [3]: 26%
0.11 µM	O=C(Cc1cc[n+]([O-])cc1)N1CCC(=C2c3ccc(Cl)cc3OCc3cc(Br)cnc32)CC1	
0.14 µM	CN1Cc2cccnc2C(N2CCN(/C(=N/Cc3ccncc3)NC#N)CC2)c2ccc(Cl)cc21 (stereo not given)	inhibition [3]: 10%
